This is an account of results in patent US20090047684A1, “Gene and protein expression profiles associated with the therapeutic efficacy of irinotecan” (Nuclea Biomarkers, LLC, priority 2006, published 2009).

The test system of this assay is tumor cells derived from patients who were responsive to treatment with irinotecan. In words: xenograft of patient-derived tumor cells in SCID mice treated with irinotecan. The note with it: SCID mice with established xenograft tumors, injected with 200 mg/kg of irinotecan. It is filed as in vivo. On the procedure: Positive expression also was evaluated using a xenograft array. SCID mice were injected with tumor cells derived from patients who were responsive to treatment with irinotecan, and the tumors were allowed to grow in the mice. Once the tumors were established, the mice were injected with 200 mg/kg of irinotecan, and the mice were monitored to observe responsiveness to the drug. […] Prior to treatment with the drug, samples of the tumors were extracted from the mice and used to make a TMA.
In general terms: In xenograft studies the graft and the host belong to different species.

Each structure is given as a SMILES string. Where a name gives a salt, the structure may show the parent alone.

With `CCc1c2c(nc3ccc(OC(=O)N4CCC(N5CCCCC5)CC4)cc13)-c1cc3c(c(=O)n1C2)COC(=O)[C@]3(O)CC` [irinotecan, Irinotecan hydrochloride], the “responsiveness to the drug: effect on tumors formed in the SCID mice” value was “reduced or eliminated”.
